# Experimental data published in US11827624B2, “Covalent immune recruiter compounds for immune cell recognition and associated uses” (McMaster University, priority 2020, dated 2023).
# “And” between values parts separate entries of the source, which are not always exact repeats. Identical values can stand only once.
# What was measured:
# [1] = system: humanized anti-DNP SPE7 (mmAb); test: BLI covalent labeling kinetics assay on IgG Fc capture probes, mmAb; format: binding
# Procedure: Kinetic assays to characterize the second order rate constant (kinact/KI) describing the CIR+Ab labeling reaction involved incubating increasing concentrations of CIR 3 or CIR 5 with a fixed concentration (75 nM) of anti-DNP mmAb in solution, for different periods of time. PSMA binding to CIR-Ab complexes increases the total mass associated with the probe surface leading to signal increases (nm shift). CIR 3 (500 nM) and 75 nM of either mmAb or mAb (AcroBiosystems Catalog #DNP-M2) was reacted in 1× Kinetics Buffer (ForteBio) for four hours prior to the experiment. IgG Fc capture (ProG) probes from ForteBio were placed in 1× Kinetics Buffer for 20 minutes prior to the experiment for wetting. The experiment was conducted using an Octet Red96 (ForteBio), where the acquisition rate was set to 5 Hz and the temperature was held at 25° C. The plate shaker setting was 1000 RPM. A volume of 250 μL of each solution was loaded onto a black flat-bottom 96-well plate (Grenier). The experiment began by placing the ProG probes in 1×Kinetics Buffer for four minutes to establish a baseline. Next, the probes were placed into the CIR 3 and anti-DNP antibody reaction mixture to load the covalent complex (CIR-Ab) onto the probe. Next, the probes were placed in a solution of 5 mM DNP-glycine competitor in 1×Kinetics Buffer in order to disrupt any non-covalent or non-specific binding. The baseline was re-established by then placing the probes in 1× Kinetics Buffer for 0.5 minutes. To measure PSMA association, the probes were placed in a solution of 500 nM human PSMA protein in 1× Kinetics Buffer for 10 minutes. The probes were then placed in 1×Kinetics Buffer for 10 minutes to measure dissociation. The raw nm shift signal for the association and dissociation step obtained by the Octet Red96 was first baselined to the beginning of the association step (t=0 second) by subtracting the association signal at t=0 from the measured signal at each time point. The Kd was determined by fitting both the association and dissociation curves using the ‘association then dissociation’ binding model in GraphPad Prism 8. The experiment was repeated once for a total of two replicates.
# The specific labelling of an antibody by a CIR occurs via a two-step mechanism. In the first step, the CIR binds to the antibody via its ABD and forms a reversible complex. […] This second order rate constant was determined by monitoring covalent product (CIR-Ab) formation as a function of time via BLI using IgG Fc capture probes (note: a non-specific labeling reaction occurs independent of binding to the DNP binding site with any biological nucleophile and follows second order kinetics without saturation). […]
# PSMA+HEK cells = test: CD16α activation assay with pan human IgG as source of sAb; format: cell-based; conditions: pan IgG 230 μM, ~10 nM anti-DNP IgG
# Procedure: Preparation of antibody-CIR/ARM stocks were mixed overnight prior to addition to the ADCC plate. In the case of mmAb and mAb, incubation was carried out at 600 nM antibody and 1.2 μM CIR or ARM. In the case of IgG from serum, incubation was completed at 230 μM antibody and 8.7 μM CIR or ARM. In all cases, DMSO was kept close to 1%. After the overnight incubation, a dilution series was completed on the antibody-CIR/ARM stocks in RPMI (1% DMSO). Target cells were seeded at a density of 2.5×10^4 cells per well in opaque 96 well flat-bottom plates (Corning Costar, 3917) in complete media. Sixteen hours after seeding, cells were washed gently with 100 μL of neat RPMI. To the cells, 25 μL of RPMI supplemented with 4% ultra-low IgG FBS was added followed by 25 μL of antibody+/−CIR/ARM conditions described above. After a 30-minute incubation, 25 μL of supplemented RPMI containing 7.5×10^4 Jurkat effector cells expressing human FcgRIlla (CD16) were added to each well. The plates were then incubated for 6 additional hours. 75 μL of Bio-Glo Luciferase Assay Reagent was added to each well, and luminescence was quantified using the SpectraMax i3 plate reader.
# Depleted serum IgG is derived from pan serum human IgG passed through DNP coated beads to remove endogenous anti-DNP IgG. […]
smiles,measurement,setting,value
O=C(O)CC[C@H](NC(=O)N[C@@H](CCCCNC(=O)NCCOCCOCCOCCOCCOCCOCCOCCOC(=O)n1cnc(CCNC(=O)CNc2ccc([N+](=O)[O-])cc2[N+](=O)[O-])c1)C(=O)O)C(=O)O [CIR 3],covalent reaction selectivity at excess CIR,"[1]; 20-fold excess (1.5 μM), mAb and mmAb",high covalent reaction selectivity for the DNP hapten binding site on both mAb and mmAb was observed
same,Kinact/Kl ^c,[1]; mmAb,12000 ± 1000 M⁻¹ s⁻¹
same,Kinact^c,"[1]; mmAb, 75 nM antibody",4.0 × 10^−4 ± 0 s^−1
same,Ki,"[1]; mmAb, read-out: Kl ^c",~30 nM and 30 nM
same,CD16α activation,PSMA+HEK cells,mediated efficient CD16α activation
